Reference: EP3409671B1, “ISOTHIAZOLE DERIVATIVES AS GPR120 AGONISTS FOR THE TREATMENT OF TYPE II DIABETES” (Janssen Pharmaceutica NV, priority 2014, dated 2015)

Target: T1, Human GPR120 short form (Homo sapiens, UniProt Q5NUL3)
T1 construct: expressed in transfected cells
T1 sequence (Q5NUL3 1-361): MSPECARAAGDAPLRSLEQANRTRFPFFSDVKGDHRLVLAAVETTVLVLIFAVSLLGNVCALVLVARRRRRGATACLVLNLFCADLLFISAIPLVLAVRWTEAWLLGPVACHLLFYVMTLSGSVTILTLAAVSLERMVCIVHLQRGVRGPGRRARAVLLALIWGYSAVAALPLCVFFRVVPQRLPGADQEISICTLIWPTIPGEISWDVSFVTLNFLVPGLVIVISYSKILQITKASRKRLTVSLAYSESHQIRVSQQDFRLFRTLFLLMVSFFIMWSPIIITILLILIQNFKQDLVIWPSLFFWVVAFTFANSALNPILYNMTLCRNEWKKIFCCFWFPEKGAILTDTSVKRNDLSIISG
Assay: Human GPR120 Calcium Flux Assay, Procedure Calcium A
Assay type: cell-based
Details: HEK-293 cells expressing Human GPR120 short form, FLIPR, 2500 cells / well; read-out: GPR120 Ca^2+ Assay A EC50
Excerpt: This in vitro assay serves to assess test compound agonist activity against the short splice variant (SVS with Accession number NM_001195755.1 confirmed by sequencing data) of the GPR120 receptor. The Human Short splice variant #2 (NM_001195755.1) is missing an in-frame coding exon compared to variant 1 (the Human Long splice variant NM_181745.3), resulting in a shorter isoform (GPR120-S) lacking a 16 aa protein segment compared to isoform GPR120-L. The assay platform utilizes HEK-293 cells stably transfected to express the Human GPR120 short form. These cells are first loaded with the Ca^+2 sensitive dye, Fluo-4 NW. Upon stimulation, intracellular released Ca^+2 can bind to the dye and alter its fluorescence intensity. This increase in fluorescence signal, and thus the flux in intracellular [Ca^2+], is detected and quantitated by fluorescence imaging using a FLIPR reader. The effect of the agonist is measured as a function of concentration and used to calculate an EC50 based upon a response curve.
In this procedure 2500 cells / well were employed.
A Human GPR120 clone (Genbank accession number NM _001195755.1) was placed into the pcDNA3.1 mammalian expression vector carrying the neomycin resistance gene. A stable mammalian cell was generated by placing the above clone into a HEK293 background. Clonal cells responding to long chain fatty acids had expression levels of GPR120 confirmed by RT-qPCR. Human HEK-GPR120 cells were cultured in Dulbecco's Modified Eagle's Medium (DMEM)/F12 medium supplemented with 10% fetal bovine serum (FBS), 1% L-Glutamine and 1% penicillin/streptomycin and 0.5 mg/ml G-418. Cells were split 2 times a week to keep the cells in the log-phase growth.
In preparation for the assay, HEK cells stably transfected with Human GPR120 (2.5K cells per well in 25uL growth medium) were seeded into 384-well plates and then incubated overnight (37°C, 5% CO2). The next day, the media was changed to 20 µL assay buffer and the cell starved for 1h at 37°C. […]
The assay was performed on a FLIPR plate reader using the following parameters. Baseline was read for 10 seconds at 1 sec intervals. The program was set to transfer 10µL of ligand from compound plate to cell plate after baseline reading. […] After compound addition, each well was read for 300 sec, with measurements collected at 1 sec intervals.
The kinetic data from the FLIPR was based upon a 5 minute window for data collection. The fluorescence of each sample well was used for individual calculations of a normalized RFU value, which was defined as maximum response minus the minimum response. The normalized fluorescence reading (RFU) was calculated as follows: RFU = Fmax−Fmin [formula] […]

| Compound | EC50 [nM] |
| --- | --- |
| O=C(O)CCc1ccc(OCc2c(C(F)(F)F)nsc2-c2ccc(Cl)cc2)c(Cl)c1Cl [Cpd 55, 3-(2,3-dichloro-4-[[5-(4-chlorophenyl)-3-(trifluoromethyl)-1,2-thiazol4-yl]methoxy]phenyl) propanoic acid] | 231 |
| O=C(O)CCc1cc(F)c(OCc2c(Cl)nsc2-c2ccc(Cl)cc2)c(F)c1 [Cpd 75, 3-(4-[[3-chloro-5-(4-chlorophenyl)-1,2-thiazol-4-yl]methoxy]-3,5-difluorophenyl)propanoic acid] | 42 |
